In patent US10004716B2, “Therapeutic/ preventive agent containing coumarin derivative as active ingredient” (NIPPON ZOKI PHARMACEUTICAL CO., LTD., priority 2014, dated 2018):

What was measured:
[1] = tested on: IL-1β gene expression; assay: Suppression of IL-1α-induced gene expression of inflammation-related factors in bovine cartilage pieces (real time PCR): IL-1β; type: cell-based; settings: 20 μmol/L test substance 2 hours, then IL-1α 3 ng/mL 8 hours, n = 3
Procedure: (§1) Each 6 to 8 cartilage pieces (diameter: 4 mm) of bovine metacarpophalangeal joint were placed into each well of a 24-well plate and incubated for one night in 1 mL of a basal medium in a CO2 incubator which was set at 37° C. and 5% by volume of CO2. After that, they were incubated for 2 hours in a basal medium containing 20 μmol/L of a test substance and, after addition of human recombinant IL-1α (3 ng/mL) thereto, they were incubated for 8 hours more. After completion of the incubation, the culture medium was discarded, an RNA stabilizer was added to the cartilage pieces, the mixture was incubated at 4° C. for one night and the cartilage pieces were finely cut using scissors, placed into micro-tubes and stored with freezing until the extraction of RNA therefrom.
(§2) The cartilage pieces placed in the micro-tubes were pulverized using Tissue Lyser (QIAGEN) (at 25 Hz for 5 minutes; for two times), 1 mL of QIAzol Lysis Reagent (QIAGEN) was added thereto to suspend, 200 μL of chloroform was added thereto followed by mixing and the mixture was centrifuged (1500 rpm at 4° C.) to recover the supernatant liquid. Total RNA was extracted and purified using QIACube (QIAGEN) and RNeasy Micro Kit (QIAGEN). cDNA was prepared from the total RNA using Omniscript RT Kit (QIAGEN) and Oligo(dT)12-18 Primer (Invitrogen).
(§3) The cDNA synthesized from the total RNA extracted in the above (2) was used to measure the gene expression level of the inflammation-related factors [IL-1β, IL-6, COX-2 and iNOS (inducible nitric oxide synthase)] by a conventional real time PCR method using a fluorescent dye SYBR GREEN I (Roche Diagnostics) by a Light Cycler LC 480 (the same). A calibration curve was prepared by dilution of a PCR product quantified by a DNA quantitation kit (PicoGreen dsDNA Quantitiation Kit (Molecular Probes)) to an extent of 10^2˜10^7 copies/μL. From each of the resulting measured data, copy numbers per 10000 copies of glyceroaldehyde-3-phosphate dehydrogenase (GAPDH) which was an internal standard were calculated.

[2] = tested on: IL-6 gene expression; assay: Suppression of IL-1α-induced gene expression of inflammation-related factors in bovine cartilage pieces (real time PCR): IL-6; type: cell-based; settings: 20 μmol/L test substance 2 hours, then IL-1α 3 ng/mL 8 hours, n = 3
Procedure: as §1, §2, §3

[3] = tested on: COX-2 gene expression; assay: Suppression of IL-1α-induced gene expression of inflammation-related factors in bovine cartilage pieces (real time PCR): COX-2; type: cell-based; settings: 20 μmol/L test substance 2 hours, then IL-1α 3 ng/mL 8 hours, n = 3
Procedure: as §1, §2, §3

[4] = tested on: fibronectin gene expression; assay: Evaluation I: TGF-β-induced gene expression of fibrosis-related factors in NHLF cells: fibronectin; type: cell-based, human; settings: 25 μmol/L test substance 2 hours, then TGF-β 5 ng/mL 24 hours, n = 3
Procedure: NHLF cells were sown so as to make their amount 4×10^4 cells/well to each well of a 12-well plate and incubated to an extent of 80% confluent in a medium where fibroblast growth medium 2 supplement mix (FGM-2 SingleQuots, Lonza) was added to a fibroblast basal medium (FBM, Lonza). After that, incubation was conducted for 2 hours in a Dulbecco modified Eagle medium (DMEM) containing 25 μmol/L of a test substance and, after addition of […] growth factor (TGF)-β thereto so as to make its final concentration 5 ng/mL, incubation was carried out for 24 hours more.
QIAzol Lysis Reagent (QIAGEN) (1 mL) was added to the above to suspend, 200 μL of chloroform was added thereto followed by mixing and centrifugation (at 4° C. and 1500 rpm) was then conducted whereby the supernatant liquid was recovered. Total RNA was extracted and purified by treating the supernatant liquid with QIACube (QIAGEN) and RNeasy Micro Kit (QIAGEN). cDNA was prepared from the total RNA using Omniscript RT kit (QIAGEN) and Oligo(dT)12-18 Primer (Invitrogen).
Gene expression level of the fibrosis-related factors [connective tissue growth factor (CTGF), α-smooth muscle actin (SMA), fibronectin, endothelin and type I collagen (Col 1)] was measured by a conventional real time PCR method using a fluorescent dye SYBR GREEN I (Roche Diagnostics) by Light Cycler LC 480 (the same) using cDNA synthesized from the total RNA extracted in the above (2). A calibration curve was prepared by diluting the PCR product quantified by PicoGreen dsDNA Quantitation kit (Molecular probes) (a DNA quantitation kit) to an extent of 10^2˜10^7 copies/μL. From each of the resulting quantified values, copy numbers per 10000 copies of GAPDH gene being an internal standard were calculated.

[5] = tested on: rats suffering from degenerative intervertebral disk induced by nicotine; assay: 50% reaction threshold value to mechanical stimulation (von Frey test) in rats with degenerative intervertebral disk induced by nicotine; type: in vivo; settings: SD male rats, after 41 days from exposure to nicotine, 1 hour after administration; per os once daily; n = 8; normal control 15.0, diseased control 4.6
Procedure: After 16 days from the purchase, SD male rats were organized into normal control group and nicotine group in terms of body weight, 50% reaction threshold value (measuring method will be mentioned later) and duration of walking time and, after 17 days from the purchase, exposure to nicotine was started for a nicotine group. Nicotine was prepared into 344.8 mg/mL using a physiological saline solution, filled into an osmotic pressure pump and retained under the skin of waist of rats. After 21 days from the retaining, an osmotic pressure pump into which a freshly-prepared nicotine solution was filled was retained under the skin of rats of five groups except the normal control group. Nicotine was prepared into […] using a physiological saline solution, filled into an osmotic pressure pump and retained under the skin of waist of the SD male rats.
After 13 days from exposure to nicotine, measurement of 50% reaction threshold value, duration of walking time and body weight were measured and a group organization was done into 6 groups of normal control group, diseased control group, compound 57-administered group, compound 58-administered group, compound 60-administered group and compound 68-administered group.
A test substance was suspended using 0.5 w/v % CMC and, together with stirring, 10 mL/kg of the suspension was repeatedly administered per os once daily after 14 to 52 or 53 days from the initiation of exposure to nicotine using an oral sonde for rats. To the normal control group and the diseased control group, 0.5 w/v % CMC was repeatedly administered per os in the same administration schedule and administration method.
A 50% reaction threshold value to mechanical stimulation was measured before the exposure to nicotine and after 41 days from the exposure to nicotine. The six groups of the rats mentioned in the above (2) were placed in a transparent acrylic gauge where the bottom is a metal wire, acclimated for about 3 minutes and a 50% reaction threshold value to mechanical stimulation was measured after 1 hour from the administration of a testing drug.
The measurement was conducted using a von Frey filament (manufactured by North Coast Medical Inc.) in accordance with a method of Chaplan, et al. (Journal of Neuroscience Methods, vol. 53, no. 1, pages 55 to 63, 1994) and a method of Dixon, et al. ([…] of Pharmacology and Toxicology, vol. 20, pages 441 to 462, 1980). […] A 50% reaction threshold value to mechanical stimulation was measured using the reaction for the stimulation for six times in total and a mean value in each of the groups was calculated. […]

Row | SMILES | Copy Numbers per 10000 Copies of GAPDH IL-1β [1] | Copy Numbers per 10000 Copies of GAPDH IL-6 [2] | Copy Numbers per 10000 Copies of GAPDH COX-2 [3] | Copy Numbers per 10000 Copies of GAPDH Fibronectin [4] | Threshold Value for Pain [5]
1 | O=c1oc2c(OS(=O)(=O)c3ccc(C(F)(F)F)cc3)cccc2cc1NS(=O)(=O)c1cccc(C(F)(F)F)c1 [Compound 57, 2-Oxo-3-[[3-(trifluoromethyl)phenyl]sulfonylamino]-chromen-8-yl 4-(trifluoromethyl)benzenesulfonate] | 144.8 copies per 10000 copies of GAP | 7749.8 copies per 10000 copies of GAP | 1420.8 copies per 10000 copies of GAP | 21220.7 copies per 10000 copies of GAP | 7.5 g
2 | O=c1oc2c(OS(=O)(=O)c3ccc(C(F)(F)F)cc3)cccc2cc1NS(=O)(=O)c1cccc(Br)c1 [Compound 58, 3-[(3-Bromophenyl)sulfonylamino]-2-oxochromen-8-yl 4-(trifluoromethyl)benzenesulfonate] | 157.8 copies per 10000 copies of GAP | 9346.3 copies per 10000 copies of GAP | 982.3 copies per 10000 copies of GAP | 18665.2 copies per 10000 copies of GAP | 6.7 g
3 | O=c1oc2c(OS(=O)(=O)c3cccc(Br)c3)cccc2cc1NS(=O)(=O)c1cccc(C(F)(F)F)c1 [Compound 60, 2-Oxo-3-[[3-(trifluoromethyl)phenyl]sulfonylamino]-chromen-8-yl 3-bromobenzenesulfonate] | 170.6 copies per 10000 copies of GAP | 9277.4 copies per 10000 copies of GAP | 920.6 copies per 10000 copies of GAP | 30000.8 copies per 10000 copies of GAP | 9.6 g
4 | O=c1oc2c(OS(=O)(=O)c3cccc(C(F)(F)F)c3)cccc2cc1NS(=O)(=O)c1ccc(C(F)(F)F)cc1 [Compound 68, 2-Oxo-3-[[4-(trifluoromethyl)phenyl]sulfonylamino]-chromen-8-yl 3-(trifluoromethyl)benzenesulfonate] | 175.1 copies per 10000 copies of GAP | 16195.2 copies per 10000 copies of GAP | 1655.9 copies per 10000 copies of GAP | 26090.7 copies per 10000 copies of GAP | 7.6 g
